Laboratory results published in ChEMBL document CHEMBL1201862, “PubChem BioAssay data set” (2004).
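Cultured in 96-well plates, cells were exposed to test compound for 48 hours across five concentrations. Here, GI50 denotes the concentration required for 50% inhibition of growth.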 Calls of active or inactive are those of the source. No stated cut-off is given here; in the data, active = GI50 up to about 1.1 µM and inactive = higher.

How the values were obtained:
Test in all cases: NCI tumour cell line growth inhibition, 48 h
A549 = test system: A549
ACHN = test system: ACHN
BT-549 = test system: BT-549
CAKI-1 = test system: CAKI-1
CCRF-CEM = test system: CCRF-CEM
COLO 205 = test system: COLO 205
DU-145 = test system: DU-145
EKVX = test system: EKVX
HCT-116 = test system: HCT-116
HCT-15 = test system: HCT-15
HL-60 = test system: HL-60
HOP-62 = test system: HOP-62
HT-29 = test system: HT-29
Hs-578T = test system: Hs-578T
IGROV-1 = test system: IGROV-1
K562 = test system: K562
KM12 = test system: KM12
LOX IMVI = test system: LOX IMVI
M14 = test system: M14
MCF7 = test system: MCF7
MDA-MB-231 = test system: MDA-MB-231
MDA-MB-435 = test system: MDA-MB-435
MDA-N = test system: MDA-N
MOLT-4 = test system: MOLT-4
Malme-3M = test system: Malme-3M
NCI-H23 = test system: NCI-H23
NCI-H460 = test system: NCI-H460
NCI/ADR-RES = test system: NCI/ADR-RES
OVCAR-3 = test system: OVCAR-3
OVCAR-4 = test system: OVCAR-4
OVCAR-5 = test system: OVCAR-5
OVCAR-8 = test system: OVCAR-8
PC-3 = test system: PC-3
RPMI-8226 = test system: RPMI-8226
RXF 393 = test system: RXF 393
SF-268 = test system: SF-268
SF-295 = test system: SF-295
SF-539 = test system: SF-539
SK-MEL-28 = test system: SK-MEL-28
SK-MEL-5 = test system: SK-MEL-5
SK-OV-3 = test system: SK-OV-3
SN12C = test system: SN12C
SNB-19 = test system: SNB-19
SNB-75 = test system: SNB-75
SR = test system: SR
SW-620 = test system: SW-620
T47D = test system: T47D
TK-10 = test system: TK-10
U-251 = test system: U-251
UACC-257 = test system: UACC-257
UACC-62 = test system: UACC-62
UO-31 = test system: UO-31
786-0 = test system: 786-0
HOP-92 = test system: HOP-92
NCI-H226 = test system: NCI-H226
NCI-H522 = test system: NCI-H522
SK-MEL-2 = test system: SK-MEL-2

Measured: GI50

Cc1ccnn1CCc1ccc(Cl)cc1Cl
36.5 µM: HCT-15
inactive: A549 27.6 µM | ACHN 27.9 µM | BT-549 13.6 µM | CAKI-1 28.1 µM | CCRF-CEM 25.4 µM | COLO 205 35 µM | DU-145 37.4 µM | EKVX 2.31 µM | HCT-116 47.5 µM | HL-60 7.69 µM | HOP-62 15 µM | HT-29 36.8 µM | Hs-578T 22.9 µM | IGROV-1 29.6 µM | K562 29.1 µM | KM12 27 µM | LOX IMVI 33 µM | M14 24.4 µM | MCF7 31.9 µM | MDA-MB-231 29.3 µM | MDA-MB-435 38.2 µM | MDA-N 44.3 µM | MOLT-4 13.1 µM | Malme-3M 30.1 µM | NCI-H23 24.8 µM | NCI-H460 27.2 µM | NCI/ADR-RES 6.82 µM | OVCAR-3 20.5 µM | OVCAR-4 11.7 µM | OVCAR-5 32.4 µM | OVCAR-8 27.9 µM | PC-3 27 µM | RPMI-8226 8.73 µM | RXF 393 9.91 µM | SF-268 27 µM | SF-295 18 µM | SF-539 18.2 µM | SK-MEL-28 35.4 µM | SK-MEL-5 19 µM | SK-OV-3 65.9 µM | SN12C 11.8 µM | SNB-19 28.6 µM | SNB-75 14.5 µM | SR 21.9 µM | SW-620 54.8 µM | T47D 8.97 µM | TK-10 20.8 µM | U-251 29.1 µM | UACC-257 34.4 µM | UACC-62 8.73 µM | UO-31 4.63 µM

CC(=O)N1N=C(c2cc(C)ccc2O)CC1c1cccc(Cl)c1 (configuration not stated)
1.95 µM: HCT-15
inactive: 786-0 21.7 µM | A549 11.8 µM | ACHN 16.1 µM | BT-549 33.3 µM | CAKI-1 27.3 µM | CCRF-CEM 13.4 µM | COLO 205 6.93 µM | DU-145 51.9 µM | EKVX 24.1 µM | HCT-116 13.8 µM | HL-60 8.53 µM | HOP-62 22.3 µM | HOP-92 3.17 µM | HT-29 6.97 µM | Hs-578T 12.9 µM | IGROV-1 2.6 µM | K562 4.05 µM | KM12 5.7 µM | LOX IMVI 12.5 µM | M14 15.1 µM | MCF7 5.79 µM | MDA-MB-231 17.5 µM | MDA-MB-435 1.6 µM | MDA-N 2.12 µM | MOLT-4 4.26 µM | Malme-3M 6.93 µM | NCI-H226 16.1 µM | NCI-H23 13.5 µM | NCI-H460 8.85 µM | NCI-H522 3.07 µM | NCI/ADR-RES 6.03 µM | OVCAR-3 32.1 µM | OVCAR-4 13.7 µM | OVCAR-5 30.1 µM | OVCAR-8 27.4 µM | PC-3 3.35 µM | RPMI-8226 6.24 µM | RXF 393 11.3 µM | SF-268 8.55 µM | SF-295 10.9 µM | SF-539 19.2 µM | SK-MEL-2 10.3 µM | SK-MEL-5 11.7 µM | SK-OV-3 9.1 µM | SN12C 17.5 µM | SNB-19 6.08 µM | SR 1.83 µM | SW-620 7.74 µM | T47D 23.1 µM | TK-10 17.4 µM | U-251 13.8 µM | UACC-257 14.2 µM | UACC-62 7.6 µM | UO-31 17.4 µM
